Patent publication US9499614B2, “Methods for modulating protein glycosylation profiles of recombinant protein therapeutics using monosaccharides and oligosaccharides” (AbbVie, Inc., priority 2013, dated 2016)
Where “and” joins values, the source holds several entries; their conditions need not be identical. Equal values may be shown once. Entries after “also recorded” stand apart in the source; their conditions may differ.

What was measured:
Assay type in all cases: cell-based, Chinese Hamster
Cell Line 1 [1] = assay: N-glycan oligosaccharide profiling, Cell Line 1 shake flasks (Example 1)
Procedure: (§1) Two recombinant Chinese Hamster Ovary (CHO) cell lines expressing two different humanized monoclonal antibodies (Antibody 1, Antibody 2) were evaluated in two different culture vessels (shaker flasks and laboratory scale bioreactors). Both cell lines were of CHO DUX-B11 origin based on a dhfr (dihydrofolate reductase) expression system. Both cell lines were cultured in the same chemically defined basal media (CDBM), with Cell Line 1 also utilizing a chemically-defined feed media (CDFM). Each of the respective media were supplemented with selected monosaccharides and oligosaccharides to evaluate their potential impact on the resulting N-glycan oligosaccharide profile. In preparing the cultures, the cell lines were serially expanded through separate seed train inoculums to generate enough cells for inoculation.
(§2) Purified antibodies subjected to additional analytical characterization were purified using MabSelect™ Protein A (GE Healthcare, Piscataway, N.J.) using a low pH, step elution gradient, followed by buffer exchange using Corning Lifesciences (Tewksbury, Mass.) Spin Concentrator X UF columns according to the manufacturers' recommended procedures.
(§3) Approximately 200 μg of Protein A purified samples from Cell Lines 1 and 2 were treated with N-glycanase at 37° C. overnight to remove the N-glycans from the protein. The protein was precipitated and the supernatant was taken for subsequent chemical derivatization of the reducing end of the released glycans with 2-aminobenzamide (2-AB) dye. Following the derivatization step, the excess label was removed using clean up cartridges and the samples were analyzed using normal phase HPLC with fluorescent detection. Mobile phase A was 100% acetonitrile and mobile phase B was 50 mM ammonium formate pH 4.4. The glycans were eluted from a polyamide column (Prozyme, Hayward, Calif.) using a shallow gradient. The labeled glycans were detected using a fluorescence detector with an excitation wavelength of 330 nm and an emission wavelength of 420 nm.
Cell Line 1 was cultured in shake flasks in fedbatch mode after an abbreviated seed train. Sucrose and tagatose were supplemented into chemically-defined basal and feed media at concentrations of 30, 50, and 70 mM, and compared to an unsupplemented control condition. The viable cell density (VCD), viability, and harvest titer results are shown in FIGS. 3A-3C and FIGS. 5A-5C for the sucrose, and tagatose conditions, respectively. Both sugars facilitated a slight decrease in VCD, with the higher concentrations also supporting the lowest peak VCD. […] As such, the upper threshold of sucrose or tagatose concentration should not be exceeded.

Cell Line 2 = assay: N-glycan oligosaccharide profiling, Cell Line 2 (DVD 1) shake flasks (Example 2); details: 50 mM supplement vs control
Procedure: (§4) Two recombinant Chinese Hamster Ovary (CHO) cell lines expressing two different recombinant glycoproteins were evaluated in two different cultures vessels (shaker flasks and 3 L laboratory scale bioreactors). Cell Line 1 expressed Antibody 1, Cell Line 2 expressed Dual Variable Domain Immunoglobulin 1 (DVD 1) and Cell Line 3 expressed Antibody 2. Antibodies 1 and 2 are IgG1 proteins, and DVD 1 is an immunoglobulin with two variable domains as documented previously (Wu C. et al., (2007) Nat. Biotechnol 25(11):1290-1297). All cell lines were of CHO DUX-B11 origin based on a dhfr (dihydrofolate reductase) expression system. All cell lines were cultured in the same chemically defined basal media. Cell lines 1 and 2 were fed with the same chemically-defined feed media, but Cell Line 1 was fed media that was formulated at a 50% higher concentration. Each of the respective media were supplemented with either sucrose or tagatose to evaluate their potential impact on the resulting N-glycan oligosaccharide profile. All sugars were purchased from Sigma-Aldrich (St. Louis, Mo.). In preparation of the cultures, the cell lines were serially expanded through separate seed train inoculums to generate enough cells for inoculation.
as §2, §3
(§5) Experimental results are expressed as mean±SD for those results generated from at least three independent cultures. Experimental results are expressed as the measured value for those results generated from less than three independent cultures. Results were evaluated for statistical significance through 2-sided t-tests, with a requirement of p<0.05 relative to the unsupplemented control conditions.
Cell Line 2 was cultured in shake flasks in fed batch mode after an abbreviated seed train. Sucrose and tagatose were supplemented into chemically-defined basal and feed media at concentrations of 1, 30, and 50 mM, and process performance results were compared to unsupplemented control conditions. The viable cell density (VCD), viability, and harvest titer results are shown in FIGS. 15A-15C for the sucrose supplemented cultures and FIGS. 16A-16C for the tagatose supplemented cultures.

Cell Line 1 [2] = assay: 3 L laboratory-scale bioreactor culture of Cell Line 1, cell culture performance; details: for Osmolality / cell viability / lactate / pCO2 / viable cell density: 50 mM supplement vs control; for final harvest titer ratio: relative to unsupplemented control
Procedure: as §1
(§6) Viable cell density (VCD) and cell viability values were measured through trypan blue exclusion via Cedex automated cell counters (Roche Applied Science, Indianapolis, Ind.), glucose and lactate values were measured with a ABL-805 (Radiometer Medical, Denmark) blood gas analyzer. Offline pH, dissolved oxygen (DO), and pCO2 measurements were performed with a ABL-805 (Radiometer Medical, Denmark) blood gas analyzer. Osmolality was measured on a Multi-Osmette 2430 osmometer (Precision Systems, Natick, Mass.).
Antibody titers were measured from crude cell culture harvests on a Poros A™ (Life Technologies, Carlsbad, Calif.) affinity column using an Agilent (Santa Clara, Calif.) 1200 Series HPLC, or equivalent, operating with a low pH, step elution gradient with detection at 280 nm. Absolute concentrations were assigned with respect to reference standard calibration curves.
3 L scale-down model bioreactors were utilized to verify the impact of select sugars on the resulting protein glycosylation profiles. The concentration of the sucrose and tagatose was chosen to minimize any potential adverse impact on cell growth and productivity, but still facilitate a measurable modulation of the glycosylation profile. Cell culture process performance indicators were monitored and measured throughout the respective cultures. Viable cell density, cell viability, lactate, pCO2, osmolality, harvest titer, and harvest N-glycan oligosaccharide data were measured and reported.
as §4
as §6, with “performed with an ABL-805 (Radiometer” for “performed with a ABL-805 (Radiometer”, “gas analyzer. […]” for “gas analyzer. Osmolality was measured on a Multi-Osmette 2430 osmometer (Precision Systems, Natick, Mass.).”

Cell Line 1 [3] = assay: N-glycan oligosaccharide profiling, Cell Line 1 (Antibody 1) shake flasks (Example 2)
Procedure: as §4, §2, §3, §5
Cell Line 1 was cultured in shake flasks in fedbatch mode after an abbreviated seed train. Sucrose and tagatose were supplemented into chemically-defined basal and feed media at concentrations of 1, 10, 30, 50, and 70 mM, and compared to unsupplemented control conditions. The viable cell density (VCD), viability, and harvest titer results are shown in FIGS. 13A-13C for the sucrose supplemented cultures and FIGS. 14A-14C for the tagatose supplemented cultures.

[4] = 70 mM supplement, absolute % change vs control

| Compound | cumulative increase in overall mannosylated N-glycans (Cell Line 1 [1]; 70 mM supplement vs control) [%] | decrease in NGA2F species (Cell Line 1 [1]; 70 mM supplement vs control) [%] | overall decrease in fucosylation level (Cell Line 1 [1]; 70 mM supplement vs control) [%] | increase in Man 5 species (Cell Line 1 [1]; [4]) [%] | increase in Man 6 species (Cell Line 1 [1]; [4]) [%] | increase in Man 7 species (Cell Line 1 [1]; [4]) [%] | cumulative increase in overall mannosylated N-glycans (Cell Line 2) [%] | decrease in NA1F species (Cell Line 2) [%] | decrease in NGA2F species (Cell Line 2) [%] | increase in NGA2F-GlcNAc species (Cell Line 2) [%] | overall decrease in the fucosylation level (Cell Line 2) [%] | Osmolality (Cell Line 1 [2]) | cell viability (Cell Line 1 [2]) | lactate (Cell Line 1 [2]) | pCO2 (Cell Line 1 [2]) | viable cell density (Cell Line 1 [2]) | final harvest titer ratio (Cell Line 1 [2]; 50 mM supplement) | cumulative increase in overall mannosylated N-glycans (Cell Line 1 [3]; 70 mM supplement vs control) [%] | drop in NGA2F species (Cell Line 1 [3]; 70 mM supplement vs control) [%] | increase in Man 5 species (Cell Line 1 [3]; 70 mM supplement vs control) [%] | other results |
| --- | --- | --- | --- | --- | --- | --- | --- | --- | --- | --- | --- | --- | --- | --- | --- | --- | --- | --- | --- | --- | --- |
| OC[C@H]1O[C@@](CO)(O[C@H]2O[C@H](CO)[C@@H](O)[C@H](O)[C@H]2O)[C@@H](O)[C@@H]1O [sucrose] | 43 | 51 | 44 | 24 | 12 | 7 | 8 | 1 | 20 | 8 | 13 | only slightly higher | no impact | only a nominal increase | no significant difference | no impact | 0.78 | 37 | 44 | 19 | increase in NGA2F-GlcNAc species (Cell Line 1 [1]; 70 mM supplement vs control): 7%; increase in Man 5 species (Cell Line 2): 7% and 3%; increase in Man 6 species (Cell Line 2): 1%; decrease in NA1F species (Cell Line 1 [3]; 70 mM supplement vs control): 1%; increase in Man 6 species (Cell Line 1 [3]; 70 mM supplement vs control): 10%; increase in Man 7 species (Cell Line 1 [3]; 70 mM supplement vs control): 6%; increase in Man 8 species (Cell Line 1 [3]; 70 mM supplement vs control): 2%; increase in NGA2F-GlcNAc species (Cell Line 1 [3]; 70 mM supplement vs control): 8%; overall decrease in the fucosylation level (Cell Line 1 [3]; 70 mM supplement vs control): 37%; overall N-glycan core fucosylation (Cell Line 1 [3]; 10, 30, 50 and 70 mM): decreased in a statistically significant manner |
| O=C(CO)[C@@H](O)[C@@H](O)[C@H](O)CO [tagatose] | 20 | 30 | 23 | ≤ 10 | 6 | 3 | 4 | 1 | 9 | 5 | 5 | higher; also recorded: only slightly higher | remained high throughout the culture | only a nominal increase | no significant difference | much more pronounced effect | 0.90 | 15 | 23 | 8 | increase in Man 8 species (Cell Line 1 [1]; [4]): 1%; peak VCD (Cell Line 1 [2]; 50 mM supplement): 8.5×10^6 cells/mL; increase in Man 6 species (Cell Line 1 [3]; 70 mM supplement vs control): 4%; increase in Man 7 species (Cell Line 1 [3]; 70 mM supplement vs control): 2%; increase in Man 8 species (Cell Line 1 [3]; 70 mM supplement vs control): 1%; increase in NGA2F-GlcNAc species (Cell Line 1 [3]; 70 mM supplement vs control): 8%; overall decrease in the fucosylation level (Cell Line 1 [3]; 70 mM supplement vs control): 15%; N-glycan profiles compared to the control culture (Cell Line 1 [3]; 1, 10 and 30 mM): not practically different compared to the control culture |
